Measurements reported in US11666559B2, “Spiro-lactam compounds, process and uses thereof” (UNIVERSIDADE DE COIMBRA, priority 2017, dated 2023).
“Also recorded” adds a separate entry of the source.

Legend:
[1] = Acute toxicity assay in Wistar rats
Description: Wistar rats (n=5) were inoculated IP with different doses of BSS-593 and effects on liver, renal and lipid homeostasis were assessed by dosing different biochemical parameters 48 h after inoculation. ALT, AST and LDH were determined as markers of liver function and serum level of creatinine were determined as marker of renal function. Serum levels of total cholesterol, low-density cholesterol (LDL), high-density cholesterol (HDL) and triglycerides were measured to evaluate the effect of the drugs on lipid homeostasis. Results were expressed as the means with their standard errors and were compared using a one-factorial ANOVA test, followed by a Bonferroni's multi-comparison post hoc test.
In an embodiment, the acute toxicity assay of spiro-β-lactam BSS-593 was carried out. […] Control animals were administered with sterile saline (1 mL/kg; n=4). […] After blood collection animals were necropsied to identify macroscopic signs of organ injury.
In an embodiment, an acute toxicity assay was carried out. Female Wistar (220-250 g) rats were randomly divided in 4 groups. […] A fourth group of control animals was administered with sterile saline (B. Braun, Portugal) (1 mL/kg; n=4). Animals received the test drug via the intraperitoneal route and were monitored regularly for visible stress or toxicity signs such as death. All rats were anesthetized with sodium pentobarbital (Eutasil, 60 mg/kg i.p; Sanofi VeterinAria, Alges, Portugal) prior to intracardiac puncture for blood collection. […] Blood was collected into a serum SST gel and clot activator tube (Becton Dickinson, Le Pont de Claix, France) and was centrifuged (1000×g for 10 min at room temperature) to separate serum. Serum was analyzed within 24 h on a laboratory bench Clinical Chemistry Analyser c111 (Roche Diagnostics, Lda). Uver injury was assessed by measuring the rise in the serum levels of alanine aminotransferase (ALT, a specific marker for hepatic parenchymal injury), aspartate aminotransferase (AST, a nonspecific marker for hepatic injury) and lactate dehydrogenase (LDH, a marker of nonspecific cellular injury). Serum levels of creatinine was determined as marker of renal injury. Serum levels of total cholesterol, low-density cholesterol (LDL), high-density cholesterol (HDL) and triglycerides were also measured to evaluate the effect of the drugs on lipid homeostasis. Results were expressed as the means with their standard errors and were compared using a one-factorial ANOVA test, followed by a Bonferroni's multi-comparison post hoc test. A P value <0.05 was considered to be statistically significant.

P. berghei liver stages = test: In vitro activity against the liver stage of Plasmodium infection (luciferase assay in Huh7 cells); assay type: cell-based, Plasmodium berghei; details: for anti-Plasmodium activity (in words): P. berghei liver stages in Huh7 cells
Description: FIG. 6: Compound activity against P. berghei liver stages. Anti-Plasmodial activity (infection axis, bars) and toxicity to hepatoma cells (cell confluency axis, circles) are shown. Infection loads of Huh7 cells, a human hepatoma cell line, were determined by bioluminescence measurements of cell lysates 48 h after infection with luciferase-expressing P. berghei parasites. Luciferase assay in 96 well-plate; 10 000 Huh7 cells/well+10 000 PbA-LuciGFPcon spz/well.
In an embodiment, the in vitro activity against the liver stage of Plasmodium infection was also carried out: inhibition of liver stage Plasmodium infection by test compounds was determined by measuring the luminescence intensity in Huh-7 cells infected with a firefly luciferase-expressing P. berghei line, as previously described. Briefly, Huh-7 cells, a human hepatoma cell line, were cultured in 1640 RPMI medium supplemented with 10% v/v fetal bovine serum, 1% v/v nonessential amino acids, 1% v/v penicillin/streptomycin, 1% v/v glutamine, and 10 mM 4-(2-hydroxyethyl)-1-piperazineethanesulfonic acid (HEPES), pH 7, and maintained at 37° C. with 5% CO2. For infection assays, Huh-7 cells (1.0×10^4 per well) were seeded in 96-well plates the day before drug treatment and infection. The medium was replaced by medium containing the appropriate concentration of each compound approximately 1 h prior to infection with sporozoites freshly obtained through disruption of salivary glands of infected female Anopheles stephensi mosquitoes. Sporozoite addition was followed by centrifugation at 1700×g for 5 min. Parasite infection load was measured 48 h after infection by a bioluminescence assay (Biotium). The effect of the compounds on the viability of Huh-7 cells was assessed by the AlamarBlue assay (Invitrogen, U.K.) using the manufacturer's protocol.

Lactobacillus plantarum = test: Anti-bacterial activity, agar diffusion method; assay type: cell-based; details: at the concentration of 1 mg/ml
Description: In an embodiment, anti-bacterial activity of the compounds now disclosed was determined according to CLSI guidelines. The following bacteria were used: reference strains E. coli ATCC 10536, Staphylococcus aureus ATCC 6538, Bacillus subtilis ATCC 6633 and Enterococcus faecalis ATCC 29212; clinical strains of E. coli and Pseudomonas aeruginosa isolated in our laboratory; and strains of Lactobacillus rhamnosus and Lactobacillus plantarum also isolated in our laboratory. The Minimum Inhibitory Concentration (MIC) was determined by the agar diffusion method, in plates of Mueller-Hinton agar or Rogosa agar (for Lactobacilli). Briefly, 10^8 cfu/ml bacterial suspensions were prepared in sterile water and spread in the culture media. Sterile disks containing different concentrations of P3 were placed on the inoculated surface. Plates were incubated at 37° C. for 24 h or 48 h. Lactobacilli were incubated at microaerophilic conditions. A negative control made of sterile water was used. Disks of amoxicillin and imipenem were used as positive controls.

[2] = single intraperitoneal dose 0.1, 1 or 10 mg/kg, 48 h

COC(=O)C1=C[C@@]2(N=N1)C(=O)N1[C@@H](C(=O)O)C(C)(C)S[C@@H]12 [BSS-593, (2,3′R,5R)-5′-(methoxycarbonyl)-3,3-dimethyl-7-oxo-4-thia-1-azaspiro[bicyclo[3.2.0]heptane-6,3′-pyrazole]-2-carboxylic acid]
time to anaesthesia (sodium pentobarbital) between treated and control animals ([1]; intraperitoneal 0.1, 1 or 10 mg/kg, reflects apparent CNS effects): no significant differences | abnormal behavior or signs of toxicity [1, 2]: No abnormal behavior or signs of abnormal toxicity were noticed | biochemical markers of liver function, kidney function and general cell injury (ALT, AST, creatinine, LDH in the blood) vs control animals [1, 2]: no significant differences; also recorded: does not induce liver and renal injury | blood lipid profiles (cholesterol, LDL, HDL and TG) [1, 2]: no changes; also recorded: does not alter lipid metabolism | macroscopic signs of organ injury at necropsy ([1]; single intraperitoneal dose 0.1, 1 or 10 mg/kg, after blood collection): No significant differences | animal survival rate ([1]; single intraperitoneal dose 0.1, 1 or 10 mg/kg, test period of 48 h): 100% | anti-Plasmodium activity (in words) (P. berghei liver stages): presented activity | inhibitory activity (Lactobacillus plantarum): no inhibitory activity

CC1(C)S[C@H]2N(C(=O)[C@]23CC=C(C(=O)OCc2ccccc2)[C@@H]3C(=O)c2ccccc2)[C@H]1C(=O)OC(c1ccccc1)c1ccccc1 [BSS-730A]
anti-Plasmodium activity (in words) (P. berghei liver stages): presented activity | IC50 (P. berghei liver stages; luciferase-expressing P. berghei in Huh7 cells, 48 h after infection): 550 nM | inhibitory activity (Lactobacillus plantarum): no inhibitory activity
